Test results as given in the NIST ThermoML archive (doi:10.1007/s10765-013-1469-0).

Assay: xn = mol fraction of the nth substance listed
Settings: 101 kPa, Liquid; for viscosity: Concentric cylinders viscometry; for mass density: Vibrating tube method

COCCOCCOCCOCCOC [2,5,8,11,14-pentaoxapentadecane] + CCCCO
Settings | mass density [kg/m3] | viscosity [mPa·s]
288.15 K, x2 = 0 | 1015.63 | 4.341
288.15 K, x2 = 0.1013 | 1006.51 | 4.077
288.15 K, x2 = 0.2236 | 993.986 | 3.779
288.15 K, x2 = 0.3036 | 984.642 | 3.567
288.15 K, x2 = 0.4131 | 969.983 | 3.317
288.15 K, x2 = 0.5065 | 955.349 | 3.129
288.15 K, x2 = 0.5996 | 938.288 | 2.945
288.15 K, x2 = 0.7007 | 916.154 | 2.795
288.15 K, x2 = 0.7991 | 889.873 | 2.74
288.15 K, x2 = 0.8996 | 856.379 | 2.875
293.15 K, x2 = 0 | 1011 | 3.834
293.15 K, x2 = 0.1013 | 1001.91 | 3.591
293.15 K, x2 = 0.2236 | 989.415 | 3.315
293.15 K, x2 = 0.3036 | 980.1 | 3.139
293.15 K, x2 = 0.4131 | 965.493 | 2.922
293.15 K, x2 = 0.5065 | 950.916 | 2.77
293.15 K, x2 = 0.5996 | 933.921 | 2.603
293.15 K, x2 = 0.7007 | 911.881 | 2.474
293.15 K, x2 = 0.7991 | 885.715 | 2.428
293.15 K, x2 = 0.8996 | 852.384 | 2.546
298.15 K, x2 = 0 | 1006.36 | 3.38
298.15 K, x2 = 0.1013 | 997.307 | 3.152
298.15 K, x2 = 0.2236 | 984.881 | 2.93
298.15 K, x2 = 0.3036 | 975.56 | 2.783
298.15 K, x2 = 0.4131 | 960.897 | 2.599
298.15 K, x2 = 0.5065 | 946.305 | 2.462
298.15 K, x2 = 0.5996 | 929.548 | 2.321
298.15 K, x2 = 0.7007 | 907.599 | 2.206
298.15 K, x2 = 0.7991 | 881.548 | 2.165
298.15 K, x2 = 0.8996 | 848.369 | 2.263
303.15 K, x2 = 0 | 1001.73 | 3.004
303.15 K, x2 = 0.1013 | 992.702 | 2.814
303.15 K, x2 = 0.2236 | 980.276 | 2.62
303.15 K, x2 = 0.3036 | 971.014 | 2.488
303.15 K, x2 = 0.4131 | 956.499 | 2.328
303.15 K, x2 = 0.5065 | 942.026 | 2.208
303.15 K, x2 = 0.5996 | 925.164 | 2.087
303.15 K, x2 = 0.7007 | 903.304 | 1.987
303.15 K, x2 = 0.7991 | 877.365 | 1.945
303.15 K, x2 = 0.8996 | 844.334 | 2.015
308.15 K, x2 = 0 | 997.104 | 2.691
308.15 K, x2 = 0.1013 | 988.097 | 2.525
308.15 K, x2 = 0.2236 | 975.701 | 2.357
308.15 K, x2 = 0.3036 | 966.466 | 2.241
308.15 K, x2 = 0.4131 | 951.994 | 2.1
308.15 K, x2 = 0.5065 | 937.569 | 1.991
308.15 K, x2 = 0.5996 | 920.77 | 1.885
308.15 K, x2 = 0.7007 | 898.993 | 1.796
308.15 K, x2 = 0.7991 | 873.162 | 1.757
308.15 K, x2 = 0.8996 | 840.275 | 1.807
313.15 K, x2 = 0 | 992.481 | 2.426
313.15 K, x2 = 0.1013 | 983.495 | 2.278
313.15 K, x2 = 0.2236 | 971.126 | 2.134
313.15 K, x2 = 0.3036 | 961.914 | 2.034
313.15 K, x2 = 0.4131 | 947.487 | 1.905
313.15 K, x2 = 0.5065 | 933.108 | 1.812
313.15 K, x2 = 0.5996 | 916.363 | 1.712
313.15 K, x2 = 0.7007 | 894.665 | 1.631
313.15 K, x2 = 0.7991 | 868.935 | 1.592
313.15 K, x2 = 0.8996 | 836.188 | 1.628
318.15 K, x2 = 0 | 987.859 | 2.199
318.15 K, x2 = 0.1013 | 978.879 | 2.074
318.15 K, x2 = 0.2236 | 966.542 | 1.942
318.15 K, x2 = 0.3036 | 957.357 | 1.853
318.15 K, x2 = 0.4131 | 942.969 | 1.738
318.15 K, x2 = 0.5065 | 928.631 | 1.653
318.15 K, x2 = 0.5996 | 911.939 | 1.562
318.15 K, x2 = 0.7007 | 890.317 | 1.488
318.15 K, x2 = 0.7991 | 864.686 | 1.45
318.15 K, x2 = 0.8996 | 832.069 | 1.47
323.15 K, x2 = 0 | 983.234 | 2.006
323.15 K, x2 = 0.1013 | 974.275 | 1.892
323.15 K, x2 = 0.2236 | 961.962 | 1.777
323.15 K, x2 = 0.3036 | 952.794 | 1.698
323.15 K, x2 = 0.4131 | 938.437 | 1.592
323.15 K, x2 = 0.5065 | 924.136 | 1.515
323.15 K, x2 = 0.5996 | 907.495 | 1.432
323.15 K, x2 = 0.7007 | 885.946 | 1.362
323.15 K, x2 = 0.7991 | 860.406 | 1.325
323.15 K, x2 = 0.8996 | 827.911 | 1.334
328.15 K, x2 = 0 | 978.613 | 1.838
328.15 K, x2 = 0.1013 | 969.653 | 1.736
328.15 K, x2 = 0.2236 | 957.366 | 1.633
328.15 K, x2 = 0.3036 | 948.222 | 1.558
328.15 K, x2 = 0.4131 | 933.901 | 1.465
328.15 K, x2 = 0.5065 | 919.635 | 1.394
328.15 K, x2 = 0.5996 | 903.036 | 1.318
328.15 K, x2 = 0.7007 | 881.55 | 1.254
328.15 K, x2 = 0.7991 | 856.094 | 1.213
328.15 K, x2 = 0.8996 | 823.712 | 1.209
333.15 K, x2 = 0 | 973.989 | 1.691
333.15 K, x2 = 0.1013 | 965.036 | 1.612
333.15 K, x2 = 0.2236 | 952.77 | 1.516
333.15 K, x2 = 0.3036 | 943.642 | 1.448
333.15 K, x2 = 0.4131 | 929.347 | 1.359
333.15 K, x2 = 0.5065 | 915.11 | 1.289
333.15 K, x2 = 0.5996 | 898.551 | 1.223
333.15 K, x2 = 0.7007 | 877.126 | 1.161
333.15 K, x2 = 0.7991 | 851.747 | 1.119
333.15 K, x2 = 0.8996 | 819.469 | 1.104
